The results in this text go back to patent US4094984A, “6-Phenyl-8-bromo-4H-s-triazolo-[3,4C]-thieno-[2,3E]-1,4-diazepines and salts thereof” (Boehringer Ingelheim GmbH, priority 1974, dated 1978).

The subject of series [1] is warm-blooded animals, such as mice and rats. The experiment in a line: Standard pharmacodynamic test methods (pentetrazole antagonism, electroshock, conflicting situation, fighting test). It counts as in vivo. Conditions: in words. How it is done:
The above-indicated pharmacodynamic properties of the compounds of this invention were ascertained by means of various standard test methods, namely the following:
(§1) 1. Pentetrazole antagonisim [M. I. Gluckmann, Curr. Ther. Res. 7, 721 (1965)]. The median effective dose (ED50) of the test compound is determined which cancels the lethal effect of 125 mgm/kg of pentylenetetrazole in 50% of the test animals; the pentylenetetrazole is administered intraperitoneally one hour after administration of the test compound.
2. Electroshock [J. E. P. Tomann et al, J. Neuro-Physiol. 9, 231 (1946)].
3. Conflicting Situation (Inhibition of Passive Avoidance Test) [J. Geller, Arch. Int. Pharmacodyn. 149,243 (1964)].
4. Fighting Test (Suppression of isolation-induced aggressiveness in mice) [Wirth et al; Arch. Int. Pharmcodyn. 115, 1-31 (1958)].
(§2) Albino mice (NMRI) having a body weight of 20 to 25 gm or albino rats (FW-49) having a body weight of 140 to 200 gm were used as the test animals, and the test compounds were administered perorally as a suspension in olive oil by means of an esophageal sound.

Series [2] can be described thus: Toxicity, median lethal dose (Litchfield and Wilcoxon). Also on record: species or system Mouse; albino mice (NMRI). Conditions: in vivo, po, mouse; for selectivity ratio: p.o., LD50 over pentylenetetrazole antagonism ED50, read-out: Therap. Index LD50:ED50. How it is done:
5. Toxicity [Litchfield and Wilcoxon, J. Pharmacol. Exp. Therap. 96, 99(1949)]. Determination of median lethal dose (LD50).
as §2

For series [3], the system named is lethal effect of 125 mgm/kg of pentylenetetrazole. The experiment in a line: Pentetrazole antagonism test (anticonvulsive activity). The note with it: po, 1 h; mouse; p.o.; 125 mgm/kg pentylenetetrazole i.p. one hour after test compound; values graphically determined. It counts as in vivo, Mouse; albino mice (NMRI). The method, then: as §1, §2

Where only a bound is given, the exact number is not on record here.

For `Cc1nnc2n1-c1sc(Br)cc1C(c1ccccc1Cl)=NC2` [A, 8-bromo-6-(o-chlorophenyl)-1-methyl-4H-s-triazolo [3,4c]thieno[2,3e]1,4-diazepine], the “effectiveness among the compounds of formula I” value in series [1] is on record as “particularly effective”. In series [2], the LD50 is more than 3500 mg/kg and the selectivity ratio was more than 50000. For the same compound, in series [3], it took a dose of 0.07 mg/kg to reach the 50% effect level (ED50).

With `Cc1nnc2n1-c1sc(Br)cc1C(c1ccccc1F)=NC2` [B, 8-bromo-6-(o-fluorophenyl)-1-methyl-4H-s-triazolo[3,4c]thieno[2,3e]1,4-diazepine], in series [2], the LD50 is more than 3300 mg/kg and the selectivity ratio was more than 22000. In series [3], this compound had a median effective dose (ED50) of 0.15 mg/kg.

As to `Cc1nnc2n1-c1sc(Br)cc1C(c1ccccc1Br)=NC2` [C, 8-bromo-6-(o-bromophenyl)-1-methyl-4H-s-triazolo[3,4c]thieno[2,33]1,4-diazepine], in series [1], the “effectiveness among the compounds of formula I” value is “particularly effective”. For the same compound, in series [2], the LD50 was more than 3500 mg/kg and the selectivity ratio is more than 29200. Besides, the median effective dose (ED50) in series [3] stood at 0.12 mg/kg.

In series [3], `Cc1nnc2n1-c1sc(Br)cc1C(c1ccccc1)=NC2` [D, 8-bromo-6-phenyl-1-methyl-4H-s-triazolo[3,4]thieno[2,3e]1,4-diazepine] displayed an ED50 of 0.8 mg/kg.

As to `CCc1cc2c(s1)-n1c(C)nnc1CN=C2c1ccccc1Cl` [E, 8-ethyl-6-(o-chlorophenyl)-1-methyl-4H-s-triazolo[3,4c]thieno[2,3e]-1,4-diazepine, reference compound], in series [2], the LD50 stood at 3070 mg/kg and the selectivity ratio was 4390. For the same compound, in series [3], the ED50 was determined as 0.7 mg/kg.

Turning to `Cc1nnc2n1-c1sc(Cl)cc1C(c1ccccc1Cl)=NC2` [F, 8-chloro-6-(o-chlorophenyl)-1-methyl-4H-s-triazolo[3,4c]thieno[2,3e]1,4-diazepine, reference compound], in series [2], the LD50 is 2300 mg/kg and the selectivity ratio amounted to 2300. The compound also registered an ED50 in series [3] of 1 mg/kg.

Regarding `Cc1nnc2n1-c1sc(Cl)cc1C(c1ccccc1Br)=NC2` [G, 8-chloro-6-(o-bromophenyl)-1-methyl-4H-s-triazolo[3,4c]thieno[2,3e]1,4-diazepine, reference compound], in series [2], the LD50 came out at 2200 mg/kg and the selectivity ratio amounted to 3140. Besides, the ED50 in series [3] worked out at 0.7 mg/kg.

`Cc1nnc2n1-c1sc(Cl)cc1C(c1ccccc1)=NC2` [H, 8-chloro-6-phenyl-1-methyl-4H-s-triazolo[3,4c]thieno[2,3e]1,4-diazepine, reference compound] gave an ED50 in series [3] of 3 mg/kg.
